Patent publication US10238631B2, “Sesquiterpene derivatives and their use in inflammation or cancer treatment” (Academia Sinica, priority 2014, dated 2019)
Read-outs that look alike come from different tables or passages of the source.

Tests used:
[1] = tested on: Melanocyte (Normal cells); assay: MTT cell viability assay, normal melanocytes; assay type: cell-based, human; settings: Homo sapiens, Melanocyte, 24 h
Protocol: (§1) Normal or cancer cells (2×10^3 to 1×10^4 cells/well) were seeded in 96-well plate for overnight and treated with different compounds for 24 h to 72 h. Cells growth were determined by MTT-based colorimetric assays according to. Viability of the test cells treated with vehicle (0.5% DMSO) only was defined as 100% viable. Survival of cells after treatment with DETDs was calculated using the following formula: viable cell number (%)=OD570 (treated cell culture)/OD570 (vehicle control)×100.
(§2) Several genes are involved in melanoma development and pathology; specifically, mutation in V-raf murine sarcoma viral oncogene homolog B1 (B-RAF) occurs approximately 50-60% and in neuroblastoma RAS viral oncogene homolog (N-RAS) occurs about 30% of malignant melanomas. A spectrum of wild-type or mutated melanoma cell lines including B16-F10, MeWo, A375, A2058, HTB-68, and melanocyte were used to study anti-melanoma cell proliferation activity of parental phytocompound DET and newly synthesized DETDs.

[2] = tested on: LPS-induced nitric oxide (NO) production in RAW 264.7 cells; assay: Nitric oxide production in LPS-stimulated macrophages (Griess); assay type: cell-based, mouse; settings: Mus musculus; LPS-stimulated RAW264.7, nitrite 24 h after LPS
Protocol: (§3) Marcophages (2×10^5 cells/well in 96-well plate) were treated with compounds for 1 h, then incubated further for 24 h with or without the presence of […] LPS in the cultural medium. Nitrite levels in cell culture medium were determined by the Griess reaction method. In parallel to the Griess assays, macrophage cell viabilities were determined using the MTT based colorimetric assay.
LPS from the outer membrane of Gram-negative bacteria can induce mRNA or protein levels of inducible nitric oxide synthase (iNOS), which catalyzes oxidative deamination of L-arginine to produce nitric oxide (NO). Once NO is predominantly produced, it interacts with superoxide anion and generates highly reactive oxidants resulting in cellular inflammation, DNA, protein and tissue damages, carcinogenesis, and antiapoptosis. We used in vitro LPS stimulated inflammation in RAW264.7 cell system to evaluate the effect of DET and its derivatives DETDs on NO production by determination of nitrite level (equivalent to NO level) in culture medium 24 h after LPS treatment.

A375 (BRAF mutation) = assay: MTT cell viability assay, A375 melanoma; assay type: cell-based, human; settings: Homo sapiens, A-375, 24 h, read-out: IC50 on cell viability, A375 (BRAF mutation)
Protocol: as §1, §2
To investigate whether or not DETD-35 show synergism with PLX4032 against A375 melanoma cells, we performed anti-proliferation assay using MTT reagent to obtain IC50 of each compound. […] The synergistic effect was quantified by combination index (CI) analysis as stated above.

[3] = tested on: TS/A (ER+, Her2−) murine mammary cancer cells; assay: MTT cell viability assay, TS/A cells; assay type: cell-based; settings: Mus musculus, 24 h, read-out: IC50 on cell viability, TS/A (ER+, Her2−)
Protocol: as §1
(§4) Sixty DETDs were derived from parental compound […] and tested for anti-breast cancer cell activity.

[4] = tested on: MeWo (No NRAS or BRAF mutation); assay: MTT cell viability assay, MeWo melanoma; assay type: cell-based, human; settings: Homo sapiens, MeWo, 24 h
Protocol: as §1, §2

A2058 (BRAF mutation) = assay: MTT cell viability assay, A2058 melanoma; assay type: cell-based, human; settings: Homo sapiens, A2058, 24 h
Protocol: as §1, §2

B16-F10 (NRAS mutation) = assay: MTT cell viability assay, B16-F10 melanoma; assay type: cell-based; settings: Mus musculus, B16-F10, 24 h, read-out: IC50 on cell viability, B16-F10 (NRAS mutation)
Protocol: as §1, §2

HTB-68 (NRAS mutation) = assay: MTT cell viability assay, HTB-68 melanoma; assay type: cell-based, human; settings: Homo sapiens, 24 h
Protocol: as §1, §2

[5] = tested on: RAW264.7 (normal macrophage); assay: MTT cell viability assay, RAW264.7 macrophages; assay type: cell-based, mouse; settings: Mus musculus, RAW264.7, 24 h
Protocol: as §1, §3

[6] = tested on: MCF-7 (ER+, Her2−) human breast cancer cells; assay: MTT cell viability assay, MCF-7 cells; assay type: cell-based; settings: MCF7, 24 h, read-out: IC50 on cell viability, MCF-7 (ER+, Her2−)
Protocol: as §1, §4

[7] = tested on: MDA-MB-231 (ER−, PR−, Her2−) human breast cancer cells; assay: MTT cell viability assay, MDA-MB-231 cells; assay type: cell-based; settings: Homo sapiens, MDA-MB-231, 24 h, read-out: IC50 on cell viability, MDA-MB-231 (ER−, PR−, Her2−)
Protocol: as §1, §4

[8] = tested on: M10 normal mammary epithelial cells; assay: MTT cell viability assay, M10 normal cells; assay type: cell-based, human; settings: Homo sapiens, Epithelial cell, 24 h
Protocol: as §1, §4

[9] = tested on: melanoma cell lines B16-F10, MeWo, A375, A2058, HTB-68; assay: MTT cell viability assay, all melanoma cell lines; assay type: cell-based; settings: 24 h, read-out: IC50 values over all types of melanoma cell lines
Protocol: as §1, §2

IC50 [2] [µM]	IC50 (A375 (BRAF mutation); 24 h, MTT) [µM]	IC50 [3] [µM]	IC50 [4] [µM]	IC50 (A2058 (BRAF mutation)) [µM]	IC50 (B16-F10 (NRAS mutation); 24 h) [µM]	IC50 (HTB-68 (NRAS mutation)) [µM]	IC50 [6] [µM]	IC50 [7] [µM]	IC50 [9] [µM]	SMILES	IC50 [1] [µM]	IC50 [5] [µM]	IC50 [8] [µM]	IC50 (A375 (BRAF mutation)) [µM]	IC50 (B16-F10 (NRAS mutation)) [µM]
1.6	3.4	2.4	9.1	5.2	2.5	7.6	3.7	4.3	1.6 to 9.9	C=C1C(=O)OC2CC3=C[C@@H](C/C(C)=C/C(OC(=O)c4cccs4)[C@H]12)OC3=O (stereo partly drawn) [DETD-30]	> 10	> 10	> 7.5		
> 10	3.4	3.1	7.9	6.6	6.6	7	> 7.5	4.9	1.6 to 9.9	C=C1C(=O)OC2CC3=C[C@@H](C/C(C)=C/C(OC(=O)[C@H](C)c4ccc5cc(OC)ccc5c4)[C@H]12)OC3=O (stereo partly drawn) [DETD-54]	> 10	> 10	> 7.5		
3	2.5	1.9	7.6	5.2	5.3	4.5	4.5	4.2	1.6 to 9.9	C=C1C(=O)OC2CC3=C[C@@H](C/C(C)=C/[C@@H](OC(=O)[C@@H](OC)c4ccc5ccccc5c4)[C@H]12)OC3=O (stereo partly drawn) [DETD-56]	> 10	> 10	> 7.5		
3.6	2.1	2.1	8.3	5	5.6	3.8	3.8	3.8	1.6 to 9.9	C=C1C(=O)OC2CC3=C[C@@H](C/C(C)=C/[C@@H](OC(=O)Cc4csc5ccccc45)[C@H]12)OC3=O (stereo partly drawn) [DETD-58]	> 10	> 10	5.8		
2.1	3	1.8	6.7	4.4	3.9	6.1	3.6	4.2	1.6 to 9.9	C=C1C(=O)OC2CC3=C[C@@H](C/C(C)=C/C(OC(=O)/C=C/c4ccc(Cl)cc4)[C@H]12)OC3=O (stereo partly drawn) [DETD-28]	> 10	> 10	4.8		
3.1	2.6	2.5	6.6	5.2	6	5.5	3.6	3.4	1.6 to 9.9	C=C1C(=O)OC2CC3=C[C@@H](C/C(C)=C/[C@@H](OC(=O)/C=C/c4ccc5c(c4)OCO5)[C@H]12)OC3=O (stereo partly drawn) [DETD-61]	> 10	> 10	4.7		
> 10	8.3	> 7.5	> 10	> 10	> 10	> 10	> 7.5	> 15		C=C1C(=O)OC2CC3=C[C@@H](C/C(C)=C/C(OC(=O)/C=C/c4cccc(OC(F)(F)F)c4)[C@H]12)OC3=O (stereo partly drawn) [DETD-47]	> 10	> 10	> 7.5		
5	> 10	6.2	> 10	> 10	> 10	> 10	> 7.5	> 7.5		C=C(C)C(=O)O[C@H]1CC2=C[C@@H](C/C(C)=C/[C@H]3OC(=O)[C@@H](CN(C)C)[C@H]13)OC2=O [DETD-1]	> 10	> 10	> 7.5		
2.4	4.1	1.6	> 10	5.8	4.7	7.8	2.4	4.6		C=C1C(=O)OC2CC3=C[C@@H](C/C(C)=C/C(OC(=O)/C(C)=C/CC)[C@H]12)OC3=O (stereo partly drawn) [DETD-5]	> 10	> 10	> 7.5		
1.8	9.2	2.4	> 10	> 10	9.4	> 10	7.1	8.7		C=C1C(=O)OC2CC3=C[C@@H](C/C(C)=C/C(OC(=O)C4CC4)[C@H]12)OC3=O (stereo partly drawn) [DETD-36]	> 10	> 10	> 7.5		
> 10	4.6	4.4	9.3	8.7	9.4	> 10	> 7.5	7.7		C=C1C(=O)OC2CC3=C[C@@H](C/C(C)=C/C(OC(=O)/C=C/c4cccc(OCC)c4)[C@H]12)OC3=O (stereo partly drawn) [DETD-50]	> 10	> 10	> 7.5		
1.8	> 10	2.7	> 10	> 10	6	> 10	3.4	5.9		C=C1C(=O)OC2CC3=C[C@@H](C/C(C)=C/C(OC(=O)CC(C)C)[C@H]12)OC3=O (stereo partly drawn) [DETD-10]	> 10	> 10	> 7.5		
> 10	2.6	3.5	> 10	6	6.3	4.8	> 7.5	5.1		C=C1C(=O)OC2CC3=C[C@@H](C/C(C)=C/[C@@H](OC(=O)Cc4coc5ccccc45)[C@H]12)OC3=O (stereo partly drawn) [DETD-59]	> 10	> 10	> 7.5		
2.5	> 10	1.9	> 10	> 10	6.8	> 10	3.4	6.7		C=C1C(=O)OC2CC3=C[C@@H](C/C(C)=C/C(OC(=O)C=C(C)C)[C@H]12)OC3=O (stereo partly drawn) [DETD-8]	> 10	> 10	> 7.5		
2.2	> 10	> 7.5	> 10	> 10	> 10	> 10	> 7.5	> 7.5		C=C1C(=O)OC2CC3=C[C@@H](C/C(C)=C/C(OC(=O)C=C(C)CCC=C(C)C)[C@H]12)OC3=O (stereo partly drawn) [DETD-14]	> 10	> 10	> 7.5		

SMILES	IC50 [2] [µM]	IC50 (A375 (BRAF mutation); 24 h, MTT) [µM]	IC50 [3] [µM]	IC50 [4] [µM]	IC50 (A2058 (BRAF mutation)) [µM]	IC50 (B16-F10 (NRAS mutation); 24 h) [µM]	IC50 (HTB-68 (NRAS mutation)) [µM]	IC50 [6] [µM]	IC50 [7] [µM]	IC50 [9] [µM]	IC50 [1] [µM]	IC50 [5] [µM]	IC50 [8] [µM]	IC50 (A375 (BRAF mutation)) [µM]	IC50 (B16-F10 (NRAS mutation)) [µM]
C=C1C(=O)OC2CC3=C[C@@H](C/C(C)=C/C(OC(C)=O)[C@H]12)OC3=O (stereo partly drawn) [DETD-17]	2		3.5	> 10	> 10		> 10	6.7	> 7.5		> 10	> 10	> 7.5	> 10	> 10
